Laboratory results reported in BindingDB's records for doi:10.1016/j.ejmech.2021.113242 (South China Agricultural University, 2021).

Assay: Inhibition of spike glycoprotein S in SARS-CoV-2 pseudovirus infected human 293T/ACE2 cells assessed as inhibition of viral infection measured after 48 hrs by luciferase reporter gene assay

First: C[C@@H]1O[C@@H](O[C@H]2[C@H](O[C@H]3CC[C@]4(C)[C@H]5CC=C6[C@@H]7CC(C)(C)CC[C@]7(C(=O)N(C)Cc7ccccc7)CC[C@@]6(C)[C@]5(C)CC[C@H]4C3(C)C)O[C@H](CO)[C@@H](O[C@@H]3O[C@@H](C)[C@H](O)[C@@H](O)[C@H]3O)[C@@H]2O)[C@H](O)[C@H](O)[C@H]1O
Second: C[C@@H]1O[C@@H](O[C@H]2[C@H](O[C@H]3CC[C@]4(C)[C@H]5CC=C6[C@@H]7CC(C)(C)CC[C@]7(C(=O)NCc7ccccc7)CC[C@@]6(C)[C@]5(C)CC[C@H]4C3(C)C)O[C@H](CO)[C@@H](O[C@@H]3O[C@@H](C)[C@H](O)[C@@H](O)[C@H]3O)[C@@H]2O)[C@H](O)[C@H](O)[C@H]1O
The IC50 of the first is 1.8-fold higher: 7.76 µM for the first, 4.37 µM for the second. The second is the more potent here.

Going from `C[C@@H]1O[C@@H](O[C@H]2[C@H](O[C@H]3CC[C@]4(C)[C@H]5CC=C6[C@@H]7CC(C)(C)CC[C@]7(C(=O)NCc7ccccn7)CC[C@@]6(C)[C@]5(C)CC[C@H]4C3(C)C)O[C@H](CO)[C@@H](O[C@@H]3O[C@@H](C)[C@H](O)[C@@H](O)[C@H]3O)[C@@H]2O)[C@H](O)[C@H](O)[C@H]1O` to `C[C@@H]1O[C@@H](O[C@H]2[C@H](O[C@H]3CC[C@]4(C)[C@H]5CC=C6[C@@H]7CC(C)(C)CC[C@]7(C(=O)NCc7cccs7)CC[C@@]6(C)[C@]5(C)CC[C@H]4C3(C)C)O[C@H](CO)[C@@H](O[C@@H]3O[C@@H](C)[C@H](O)[C@@H](O)[C@H]3O)[C@@H]2O)[C@H](O)[C@H](O)[C@H]1O`, the IC50 falls from over 20 µM to 5.89 µM.

First: COc1ccccc1CNC(=O)[C@]12CCC(C)(C)C[C@H]1C1=CC[C@@H]3[C@@]4(C)CC[C@H](O[C@@H]5O[C@H](CO)[C@@H](O[C@@H]6O[C@@H](C)[C@H](O)[C@@H](O)[C@H]6O)[C@H](O)[C@H]5O[C@@H]5O[C@@H](C)[C@H](O)[C@@H](O)[C@H]5O)C(C)(C)[C@@H]4CC[C@@]3(C)[C@]1(C)CC2
Second: C[C@@H]1O[C@@H](O[C@H]2[C@H](O[C@H]3CC[C@]4(C)[C@H]5CC=C6[C@@H]7CC(C)(C)CC[C@]7(C(=O)NCc7ccccc7Br)CC[C@@]6(C)[C@]5(C)CC[C@H]4C3(C)C)O[C@H](CO)[C@@H](O[C@@H]3O[C@@H](C)[C@H](O)[C@@H](O)[C@H]3O)[C@@H]2O)[C@H](O)[C@H](O)[C@H]1O
The IC50 of the first is 1.8-fold higher: 16.8 µM for the first, 9.57 µM for the second.

`COc1cccc(NC(=O)[C@]23CCC(C)(C)C[C@H]2C2=CC[C@@H]4[C@@]5(C)CC[C@H](O[C@@H]6O[C@H](CO)[C@@H](O[C@@H]7O[C@@H](C)[C@H](O)[C@@H](O)[C@H]7O)[C@H](O)[C@H]6O[C@@H]6O[C@@H](C)[C@H](O)[C@@H](O)[C@H]6O)C(C)(C)[C@@H]5CC[C@@]4(C)[C@]2(C)CC3)c1` and `COc1ccc(NC(=O)[C@]23CCC(C)(C)C[C@H]2C2=CC[C@@H]4[C@@]5(C)CC[C@H](O[C@@H]6O[C@H](CO)[C@@H](O[C@@H]7O[C@@H](C)[C@H](O)[C@@H](O)[C@H]7O)[C@H](O)[C@H]6O[C@@H]6O[C@@H](C)[C@H](O)[C@@H](O)[C@H]6O)C(C)(C)[C@@H]5CC[C@@]4(C)[C@]2(C)CC3)cc1` are within 1.5-fold of each other in IC50: 8.33 µM for the first, 9.97 µM for the second.

`COc1ccccc1NC(=O)[C@]12CCC(C)(C)C[C@H]1C1=CC[C@@H]3[C@@]4(C)CC[C@H](O[C@@H]5O[C@H](CO)[C@@H](O[C@@H]6O[C@@H](C)[C@H](O)[C@@H](O)[C@H]6O)[C@H](O)[C@H]5O[C@@H]5O[C@@H](C)[C@H](O)[C@@H](O)[C@H]5O)C(C)(C)[C@@H]4CC[C@@]3(C)[C@]1(C)CC2` and `C[C@@H]1O[C@@H](O[C@H]2[C@H](O[C@H]3CC[C@]4(C)[C@H]5CC=C6[C@@H]7CC(C)(C)CC[C@]7(C(=O)Nc7ccccc7Cl)CC[C@@]6(C)[C@]5(C)CC[C@H]4C3(C)C)O[C@H](CO)[C@@H](O[C@@H]3O[C@@H](C)[C@H](O)[C@@H](O)[C@H]3O)[C@@H]2O)[C@H](O)[C@H](O)[C@H]1O` are within 1.5-fold of each other in IC50: 5.54 µM for the first, 6.27 µM for the second.

Compared with `C[C@@H]1O[C@@H](O[C@H]2[C@H](O[C@H]3CC[C@]4(C)[C@H]5CC=C6[C@@H]7CC(C)(C)CC[C@]7(C(=O)NCCCc7ccccc7)CC[C@@]6(C)[C@]5(C)CC[C@H]4C3(C)C)O[C@H](CO)[C@@H](O[C@@H]3O[C@@H](C)[C@H](O)[C@@H](O)[C@H]3O)[C@@H]2O)[C@H](O)[C@H](O)[C@H]1O`, `C[C@@H]1O[C@@H](O[C@H]2[C@H](O[C@H]3CC[C@]4(C)[C@H]5CC=C6[C@@H]7CC(C)(C)CC[C@]7(C(=O)NCCc7ccccc7)CC[C@@]6(C)[C@]5(C)CC[C@H]4C3(C)C)O[C@H](CO)[C@@H](O[C@@H]3O[C@@H](C)[C@H](O)[C@@H](O)[C@H]3O)[C@@H]2O)[C@H](O)[C@H](O)[C@H]1O` is 1.8-fold lower in IC50: 13.1 µM for the first, 7.37 µM for the second.

`C[C@@H]1O[C@@H](O[C@H]2[C@H](O[C@H]3CC[C@]4(C)[C@H]5CC=C6[C@@H]7CC(C)(C)CC[C@]7(C(=O)Nc7ccccc7)CC[C@@]6(C)[C@]5(C)CC[C@H]4C3(C)C)O[C@H](CO)[C@@H](O[C@@H]3O[C@@H](C)[C@H](O)[C@@H](O)[C@H]3O)[C@@H]2O)[C@H](O)[C@H](O)[C@H]1O` and `C[C@@H]1O[C@@H](O[C@H]2[C@H](O[C@H]3CC[C@]4(C)[C@H]5CC=C6[C@@H]7CC(C)(C)CC[C@]7(C(=O)OCc7ccccc7)CC[C@@]6(C)[C@]5(C)CC[C@H]4C3(C)C)O[C@H](CO)[C@@H](O[C@@H]3O[C@@H](C)[C@H](O)[C@@H](O)[C@H]3O)[C@@H]2O)[C@H](O)[C@H](O)[C@H]1O` are within 1.5-fold of each other in IC50: 18.1 µM for the first, 16.8 µM for the second.

Going from `O=C(/C=C/c1ccc(O)c2oc(-c3ccc(O)c(O)c3)cc12)O[C@H](Cc1ccc(O)c(O)c1)C(=O)O` to `C[C@@H]1O[C@@H](O[C@H]2[C@H](O[C@H]3CC[C@]4(C)[C@H]5CC=C6[C@@H]7CC(C)(C)CC[C@]7(C(=O)NCc7ccccc7Cl)CC[C@@]6(C)[C@]5(C)CC[C@H]4C3(C)C)O[C@H](CO)[C@@H](O[C@@H]3O[C@@H](C)[C@H](O)[C@@H](O)[C@H]3O)[C@@H]2O)[C@H](O)[C@H](O)[C@H]1O`, the IC50 rises from 3.85 µM to 6.32 µM (1.6-fold).

Compared with `C[C@@H]1O[C@@H](O[C@H]2[C@H](O[C@H]3CC[C@]4(C)[C@H]5CC=C6[C@@H]7CC(C)(C)CC[C@]7(C(=O)NCc7ccco7)CC[C@@]6(C)[C@]5(C)CC[C@H]4C3(C)C)O[C@H](CO)[C@@H](O[C@@H]3O[C@@H](C)[C@H](O)[C@@H](O)[C@H]3O)[C@@H]2O)[C@H](O)[C@H](O)[C@H]1O`, `C[C@@H]1O[C@@H](O[C@H]2[C@H](O[C@H]3CC[C@]4(C)[C@H]5CC=C6[C@@H]7CC(C)(C)CC[C@]7(C(=O)NCc7ccccc7F)CC[C@@]6(C)[C@]5(C)CC[C@H]4C3(C)C)O[C@H](CO)[C@@H](O[C@@H]3O[C@@H](C)[C@H](O)[C@@H](O)[C@H]3O)[C@@H]2O)[C@H](O)[C@H](O)[C@H]1O` is lower in IC50: over 20 µM for the first, 5.68 µM for the second.
